Reference: patent US9809587B2, “Pesticidally active heterocyclic derivatives with sulphur containing substituents” (Syngenta Participations AG, priority 2014, dated 2017)

Assays:
Assay type in all cases: in vivo
[1] = system: Euschistus heros (Neotropical Brown Stink Bug); experiment: Euschistus heros (neotropical brown stink bug), sprayed soybean leaf; conditions: 120 h, application rate of 200 ppm, N-2 nymphs on soybean leaf, 5 days after infestation
Protocol: Example B3: Euschistus heros (Neotropical Brown Stink Bug)
Soybean leaf on agar in 24-well microtiter plates were sprayed with aqueous test solutions prepared from 10′000 ppm DMSO stock solutions. After drying the leaf were infested with N-2 nymphs. The samples were assessed for mortality in comparison to untreated samples 5 days after infestation.

[2] = system: Tetranychus urticae (Two-Spotted Spider Mite); experiment: Tetranychus urticae (two-spotted spider mite), sprayed bean leaf discs; conditions: foliar, 192 h, application rate of 200 ppm, mixed population (mobile stages) on bean leaf discs, 8 days after infestation
Protocol: Example B9: Tetranychus urticae (Two-Spotted Spider Mite)
Bean leaf discs on agar in 24-well microtiter plates were sprayed with aqueous test solutions prepared from 10′000 ppm DMSO stock solutions. After drying the leaf discs were infested with a mite population of mixed ages. The samples were assessed for mortality on mixed population (mobile stages) 8 days after infestation.

[3] = system: Frankliniella occidentalis (Western Flower Thrips); experiment: Frankliniella occidentalis (western flower thrips), sprayed sunflower leaf discs; conditions: foliar, 168 h, application rate of 200 ppm, mixed ages on sunflower leaf discs, 7 days after infestation
Protocol: Example B11: Frankliniella occidentalis (Western Flower Thrips)
Sunflower leaf discs were placed on agar in 24-well microtiter plates and sprayed with aqueous test solutions prepared from […] stock solutions. After drying the leaf discs were infested with a Frankliniella population of mixed ages. The samples were assessed for mortality 7 days after infestation.

[4] = system: Thrips tabaci (Onion Thrips); experiment: Thrips tabaci (onion thrips), sprayed sunflower leaf discs; conditions: foliar, 144 h, application rate of 200 ppm, mixed ages on sunflower leaf discs, 6 days after infestation
Protocol: Example B10: Thrips tabaci (Onion Thrips)
Sunflower leaf discs were placed on agar in 24-well microtiter plates and sprayed with aqueous test solutions prepared from 10′000 ppm DMSO stock solutions. After drying the leaf discs were infested with a thrips population of mixed ages. The samples were assessed for mortality 6 days after infestation.

[5] = system: Spodoptera littoralis (Egyqptian Cotton Leaf Worm); experiment: Spodoptera littoralis (Egyptian cotton leaf worm), compound in agar taken up by lettuce roots; conditions: 144 h, test rate of 12.5 ppm, uptake by lettuce roots from agar, 6 days after infestation, read-out: effect in at least one of the three categories (mortality, anti-feedancy, or growth inhibition)
Method in brief: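 Compound mixed into agar from a 10′000 ppm DMSO stock and taken up over 7 days by lettuce roots; cut leaves then infested with Spodoptera eggs. Mortality, anti-feedant effect and growth inhibition scored against untreated samples 6 days after infestation.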

[6] = system: Aedes aegypti (Yellow Fever Mosquito); experiment: Activity against Aedes aegypti (yellow fever mosquito), dried deposits in tissue culture plates; conditions: application rate of 200 ppm in ethanol, adult females, after 48 h
Protocol: Example B12: Activity Against Aedes aegypti (Yellow Fever Mosquito)
Test solutions, at an application rate of 200 ppm in ethanol, were applied to 12-well tissue culture plates. Once the deposits were dry, five, two to five days old adult female Aedes aegypti were added to each well, and sustained with a 10% sucrose solution in a cotton wool plug. Assessment of knockdown was made one hour after introduction, and mortality was assessed at 24 and 48 hours after introduction.
The following compounds gave at least 80% control of Aedes aegypti after 48 h: […]

[7] = system: Spodoptera littoralis (Egyqptian Cotton Leaf Worm); experiment: Spodoptera littoralis (Egyptian cotton leaf worm), sprayed cotton leaf discs; conditions: foliar, 72 h, application rate of 200 ppm, L1 larvae on cotton leaf discs, 3 days after infestation
Method in brief: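 Cotton leaf discs on agar were sprayed with aqueous dilutions made from 10′000 ppm DMSO stocks, then infested after drying with five L1 larvae. Mortality, anti-feedant effect and growth inhibition were scored against untreated discs 3 days after infestation. Control means at least one of these exceeds the untreated sample.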

[8] = system: Diabrotica balteata (Corn Root Worm); experiment: Diabrotica balteata (corn root worm), sprayed maize sprouts; conditions: 96 h, application rate of 200 ppm, L2 larvae on maize sprouts, 4 days after infestation
Protocol: Example B2: Diabrotica balteata (Corn Root Worm)
Maize sprouts, placed on an agar layer in 24-well microtiter plates were treated with aqueous test solutions prepared from 10′000 ppm DMSO stock solutions by spraying. After drying, the plates were infested with L2 larvae (6 to 10 per well). The samples were assessed for mortality and growth inhibition in comparison to untreated samples 4 days after infestation.

[9] = system: Plutella xylostella (Diamond Back Moth); experiment: Plutella xylostella (diamond back moth), treated artificial diet; conditions: 120 h, application rate of 200 ppm, L2 larvae on artificial diet, 5 days after infestation, read-out: effect in at least one of the two categories (mortality or growth inhibition)
Method in brief: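 Artificial diet treated with aqueous dilutions of DMSO stocks (10′000 ppm stock), dried, then infested with 10-15 L2 larvae per well. Mortality and growth inhibition assessed versus untreated controls 5 days after infestation.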

[10] = system: Myzus persicae (Green Peach Aphid); experiment: Myzus persicae (green peach aphid), sprayed sunflower leaf discs; conditions: foliar, 144 h, application rate of 200 ppm, mixed ages on sunflower leaf discs, 6 days after infestation
Protocol: Example B4: Myzus persicae (Green Peach Aphid)
Sunflower leaf discs were placed on agar in a 24-well microtiter plate and sprayed with aqueous test solutions prepared from 10′000 ppm DMSO stock solutions. After drying, the leaf discs were infested with an aphid population of mixed ages. The samples were assessed for mortality 6 days after infestation.

[11] = system: Bemisia tabaci (Cotton White Fly); experiment: Bemisia tabaci (cotton white fly), sprayed cotton leaf discs; conditions: foliar, 144 h, application rate of 200 ppm, adult white flies on cotton leaf discs, 6 days after incubation
Protocol: Example B1: Bemisia tabaci (Cotton White Fly)
Cotton leaf discs were placed on agar in 24-well microtiter plates and sprayed with aqueous test solutions prepared from 10′000 ppm DMSO stock solutions. After drying the leaf discs were infested with adult white flies. The samples were checked for mortality 6 days after incubation.

[12] = system: Myzus persicae (Green Peach Aphid); experiment: Myzus persicae (green peach aphid), roots of pea seedlings in test solution; conditions: 144 h, test rate of 24 ppm, roots of infested pea seedlings in test solution, 6 days
Protocol: Example B5: Myzus persicae (Green Peach Aphid)
Roots of pea seedlings infested with an aphid population of mixed ages were placed directly in the aqueous test solutions prepared from 10′000 DMSO stock solutions. The samples were assessed for mortality 6 days after placing seedlings in test solutions.

CCS(=O)(=O)c1cc(-c2ncc(C(F)(F)F)cn2)cnc1-c1nc2cc(C(F)(F)F)ncc2n1C [Compound P25]
≥ 80%: mortality at 200 ppm [1] | mortality at 200 ppm [2] | mortality at 200 ppm [3] | mortality at 200 ppm [4] | percent control (mortality, anti-feedancy or growth inhibition) at 12.5 ppm [5] | pest or weed control at 200 ppm [6] | percent control (mortality, anti-feedant effect or growth inhibition) at 200 ppm [7] | mortality at 200 ppm [8] | percent effect (mortality or growth inhibition) at 200 ppm [9] | mortality at 200 ppm [10] | mortality at 200 ppm [11]

CCS(=O)(=O)c1cc(-c2ncccn2)cnc1-c1nc2cc(C(F)(F)F)ncc2n1C [Compound P27]
≥ 80%: mortality at 200 ppm [1] | mortality at 200 ppm [2] | mortality at 200 ppm [3] | percent control (mortality, anti-feedancy or growth inhibition) at 12.5 ppm [5] | percent control (mortality, anti-feedant effect or growth inhibition) at 200 ppm [7] | mortality at 200 ppm [8] | percent effect (mortality or growth inhibition) at 200 ppm [9] | mortality at 200 ppm [10] | mortality at 200 ppm [11] | mortality at 24 ppm [12]

CCS(=O)(=O)c1cc(-c2cccc(C#N)n2)cnc1-c1nc2cc(C(F)(F)F)ncc2n1C [Compound P64]
≥ 80%: mortality at 200 ppm [1] | mortality at 200 ppm [2] | percent control (mortality, anti-feedancy or growth inhibition) at 12.5 ppm [5] | percent control (mortality, anti-feedant effect or growth inhibition) at 200 ppm [7] | mortality at 200 ppm [8] | percent effect (mortality or growth inhibition) at 200 ppm [9] | mortality at 200 ppm [10] | mortality at 200 ppm [11]

CCS(=O)(=O)c1cc(-c2ncc(F)cc2F)cnc1-c1nc2cc(C(F)(F)F)ncc2n1C [Compound P35]
≥ 80%: mortality at 200 ppm [2] | mortality at 200 ppm [3] | percent control (mortality, anti-feedancy or growth inhibition) at 12.5 ppm [5] | percent control (mortality, anti-feedant effect or growth inhibition) at 200 ppm [7] | mortality at 200 ppm [8] | percent effect (mortality or growth inhibition) at 200 ppm [9] | mortality at 200 ppm [10] | mortality at 200 ppm [11] | mortality at 24 ppm [12]

CCS(=O)(=O)c1cc(-c2cc(C(F)(F)F)ccn2)cnc1-c1nc2cc(C(F)(F)F)ncc2n1C [Compound P21]
≥ 80%: mortality at 200 ppm [1] | mortality at 200 ppm [2] | mortality at 200 ppm [3] | mortality at 200 ppm [4] | percent control (mortality, anti-feedancy or growth inhibition) at 12.5 ppm [5] | pest or weed control at 200 ppm [6] | percent control (mortality, anti-feedant effect or growth inhibition) at 200 ppm [7] | mortality at 200 ppm [8] | percent effect (mortality or growth inhibition) at 200 ppm [9] | mortality at 200 ppm [10] | mortality at 200 ppm [11]

CCS(=O)(=O)c1cc(-n2cnc(C(F)(F)F)n2)cnc1-c1nc2cc(C(F)(F)F)ncc2n1C [Compound P110]
≥ 80%: mortality at 200 ppm [1] | mortality at 200 ppm [2] | mortality at 200 ppm [3] | mortality at 200 ppm [4] | pest or weed control at 200 ppm [6] | percent control (mortality, anti-feedant effect or growth inhibition) at 200 ppm [7] | mortality at 200 ppm [8] | percent effect (mortality or growth inhibition) at 200 ppm [9] | mortality at 200 ppm [10] | mortality at 24 ppm [12]
